Laboratory results taken from US20080306126A1, “Peroxisome proliferator activated receptor treatment of hyperhomocysteinemia and its complications” (priority 2004, published 2008).

Columns and labels:
Format in all cases: in vivo, Sprague Dawley rats
[1] = system: balloon catheter-injured carotid arteries; experiment: Balloon catheter injury of the carotid artery: development of intimal hyperplasia (I/M ratio); settings: for I/M ratio of representative micrograph (single animal): 21 days after injury; for I/M (intimal/medial ratio), group mean: three weeks after catheter injury
Procedure: (§1) Ten-week-old female Sprague Dawley rats were obtained from Harlan Laboratories (Indianapolis, Ind.). After an acclimatization period of one week, they were fed a powdered control diet with or without methionine for one week. After one week on the normal or methionine diet, an aqueous preparation rosiglitazone (3.0 mg/kg/d) or vehicle was administered by gavage. The methionine diet was prepared with 10 g of L-methionine obtained from Sigma Chemical Company in St. Louis, Miss., added to 10 kg of powdered feed and thoroughly mixed. The rats were divided into four groups (n=7/group) and fed a) control diet; b) control diet with administration of rosiglitazone; c) methionine diet; and d) methionine diet with rosiglitazone.
Balloon catheter injury of to the carotid artery was induced as previously published (27). Briefly, a 2.0 mm PTCA obtained from Boston Scientific, Inc. in Quincy, Mass. was introduced through the femoral artery to the left carotid. The balloon was inflated to 4 atmospheres for 20 seconds and then deflated to 2 atmospheres and dragged down to the aorta. The animals were continued on their respective diets and rosiglitazone treatment was continued as indicated for three weeks after the surgery. The surgical procedures were conducted under anesthesia in a totally aseptic atmosphere. All rats had free access to the feed and water, and were maintained in a 12 hour day/light cycle.
The carotid arteries were separated and flushed with zinc buffered formalin. Each artery was cut from top into 4 equal segments and placed sequentially for embedding in paraffin. Sections no thicker then 6 um were cut and stained with hemotoxalin and eosin for microscopy. All four segments were read and the intimal/medial (I/M) ratio was calculated using Image-Pro software (NIH). The mean of the I/M ratios of the 4 sections reflected the I/M for one animal.

[2] = Serum homocysteine levels by high pressure liquid chromatography
Procedure: as §1
(§2) Before the beginning of the experiment, and at the time of sacrificing the animal a blood sample was obtained from each rat. At the end of the experiment, rats were sacrificed using a carbon dioxide chamber for harvesting tissues. Samples of blood and liver were collected and immediately processed. The serum and liver samples were stored frozen.
(§3) The Hcy levels were measured by high pressure liquid chromatography according to an established method (28,29). Cystathionine-β-synthase (CβS) was assayed in the liver samples, and the procedure followed was as previously published (26).

[3] = system: cystathionine-β-synthase (CβS); experiment: Cystathionine-β-synthase activity assayed in liver samples of treated rats; settings: methionine diet with rosiglitazone, methionine diet alone 0.35+/−0.05
Procedure: as §1, §2, §3

With `CN(CCOc1ccc(CC2SC(=O)NC2=O)cc1)c1ccccn1` (stereo not drawn) [rosiglitazone] the “I/M ratio of representative micrograph (single animal)” value ([1]; FIG. 1 micrograph C: control diet with rosiglitazone) was 0.19, the “I/M ratio of representative micrograph (single animal)” value ([1]; FIG. 1 micrograph D: methionine diet with rosiglitazone) was 0.17 and the “I/M (intimal/medial ratio), group mean” value ([1]; control diet with rosiglitazone 3.0 mg/kg/d by gavage, control diet alone 0.18+/−0.05) was 0.21+/−0.03. For the same compound, the “I/M (intimal/medial ratio), group mean” value ([1]; methionine diet with rosiglitazone 3.0 mg/kg/d by gavage, methionine diet alone 0.82+/−0.21) was 0.28+/−0.12, the “I/M (intimal/medial ratio), group mean” value ([1]; methionine diet with rosiglitazone 3.0 mg/kg/d by gavage, methionine diet alone 0.82+/−0.21, listed as Rosiglitazone) was 0.27+/−0.12 and the serum homocysteine level ([2]; control diet with rosiglitazone, control diet alone 6.3+/−0.04 μM) was 5.1 ± 0.6 µM. For the same compound, the homocysteine level ([2]; methionine diet with rosiglitazone treatment (background summary)) was 16.4 ± 1.7 µM, the serum homocysteine concentration ([2]; methionine diet with rosiglitazone, methionine diet alone 28.9+/−3.2 μM) was 16.4 ± 1.7 µM and the CβS activity [3] was 0.57+/−0.1 μmoles/mg protein.
